Test results: article PMC7583847 (2020)

How the values were obtained:
Assay in all cases: UV melting at 260 nm
[1] = tested on: pApU (RNA, polymer) A/U; settings: Na+ (sodium cacodylate, I = 0.05 M); sodium cacodylate pH 7.0; r = [compound]/[polynucleotide] = 0.2; per base
[2] = tested on: polyAH+-polyAH+ (RNA, polymer, protonated adenines (pH 5)) A; settings: Na+ (sodium cacodylate, I = 0.05 M); sodium cacodylate pH 5.0; r = 0.2; second transition of poly A-poly U (free Tm 80.1 °C); per base
[3] = tested on: p(dAdT)2 (DNA, polymer) AT; settings: Na+ (sodium cacodylate, I = 0.05 M); sodium cacodylate pH 7.0; r = [compound]/[polynucleotide] = 0.2; per base

ΔTm [1] [°C] | ΔTm [2] [°C] | ΔTm [3] [°C] | Compound
3.0 ± 0.5 | 1.0 ± 0.5 | 1.1 ± 0.5 | COC(=O)C(Cc1cn(CCCCN2C=CC(=Cc3sc4ccc(Br)cc4[n+]3C)c3ccccc32)nn1)NC(=O)c1ccc(C(=O)NC(=N)N)[nH]1 (stereo not drawn)
1.0 ± 0.5 | 1.0 ± 0.5 | 0.3 ± 0.5 | COC(=O)C(Cc1cn(CCCC[n+]2c(C=C3C=CN(C)c4ccccc43)sc3ccc(Br)cc32)nn1)NC(=O)c1ccc(C(=O)NC(=N)N)[nH]1 (stereo not drawn)
